Read-outs that look alike come from different tables or passages of the source.
Assay: Venetoclax plasma pharmacokinetics in wild-type, CYP3A(−/−) and OATP1B2(−/−) mice
Assay type: in vivo
Conditions: for AUC(0-t) / Cmax: mouse, plasma, po, mean (SE)
Method: In vivo experiments were performed with female and male mice from inbred wild-type strains (FVB, DBA) or with age- and sex-matched genetically-engineered mice with a deficiency of the Cyp3a locus (8-genes; […] The studies were conducted in accordance with the NIH's Guide for the Care and Use of Laboratory Animals and as approved by the University Laboratory Animal Resources Animal Care and Use Committee at Ohio State University (2015A00000101-R2; last approved 20 September 2021) and. Mice were housed in a temperature- and light-controlled environment with free access to water and a standard diet, excluding a 3-h fast before venetoclax administration. For in vivo studies, venetoclax was prepared for oral administration by dissolving the powder in DMSO (5%) and then adding PEG300 (50%), Tween-80 (5%), and water (40%) stepwise to create a suspension with a final concentration of 2 mg/mL. […] Based on our previous experience, all experiments were prospectively designed to have group sizes of five; however, pharmacokinetic data from two CYP3A(-/-) mice were excluded due to tolerability concerns, resulting in a final group size of three (Supplementary Table S1). Pharmacokinetic studies were performed as described previously. In brief, approximately 30 μL of whole blood was collected from each mouse at six time points between 5 min and 8 h after venetoclax administration; in most cases, samples were collected at 5 min, 15 min, 30 min, 1 h, 3 h, and 8 h. The first three samples were collected from a submandibular vein using a sterile 5-mm Goldenrod Animal Lancet and a heparinized capillary tube. The fourth and fifth samples were collected from the retro-orbital venous plexus using capillary tubes after anesthetizing the mice using 2% isoflurane. The terminal sample was collected into a 1.3-mL tube containing heparin by cardiac puncture using a syringe and needle. Whole blood samples were centrifuged at 13,000× g for 5 min. The plasma supernatant was then collected, immediately placed on dry ice, and stored at -80 °C until analysis. Venetoclax was quantified using a validated UHPLC-MS/MS analytical method; this method utilizes 5-μL sample volumes and has a lower limit of quantification of 5 ng/mL. Non-compartmental analysis was performed to determine the pharmacokinetic parameters of venetoclax using Phoenix WinNonlin version 8.0 (Certara, Princeton, NJ, USA). Peak plasma concentration (Cmax) was determined by visual inspection of the data from the log concentration versus time curves. The linear trapezoidal rule was used to obtain the area under the plasma concentration-time curve from time zero to the time of the last measurable concentration (AUC0-last).

Venetoclax AUC Fold Increase (CYP3A(−/−) + ketoconazole 50 mg/kg versus vehicle-treated CYP3A(−/−), listed as venetoclax): 1.6 fold | Venetoclax AUC Fold Increase (female OATP1B2(−/−) versus wild-type DBA): 2.0 (versus wild-type DBA) fold | Venetoclax AUC Fold Increase (female OATP1B2(−/−) versus wild-type DBA, listed as venetoclax): 2 fold | AUC(0-t) (female, CYP3A(−/−) knockout (FVB.129P2 background), 10 mg/kg, CYP3A(−/−), female, venetoclax 10 mg/kg PO, co-treatment None (control of micafungin experiment), read-out: Venetoclax AUC(0–8h)): 10600 ng·h/mL | AUC(0-t) (female, DBA, 10 mg/kg, wild-type DBA, female, n=10, venetoclax 10 mg/kg PO, no co-treatment, read-out: Venetoclax AUC(0–8h)): 3210 ng·h/mL | Cmax (female, DBA, 10 mg/kg, wild-type DBA, n=10, venetoclax 10 mg/kg PO, no co-treatment): 523 ng/mL | Cmax (female, FVB, 10 mg/kg, Table S1: wild-type FVB, female, N=5, venetoclax 10 mg/kg PO, no co-treatment): 1540 ng/mL | AUC(0-t) (female, FVB, 10 mg/kg, Table S1: wild-type FVB, female, N=5, venetoclax 10 mg/kg PO, no co-treatment, read-out: Venetoclax AUC(0-last)): 7430 ng·h/mL | Cmax (female, FVB, 10 mg/kg, wild-type FVB, female, venetoclax 10 mg/kg PO 30 min after ketoconazole 50 mg/kg PO): 3080 ng/mL | AUC(0-t) (female, FVB, 10 mg/kg, wild-type FVB, female, venetoclax 10 mg/kg PO 30 min after ketoconazole 50 mg/kg PO, read-out: Venetoclax AUC(0–8h)): 19700 ng·h/mL | AUC(0-t) (female, FVB, 10 mg/kg, wild-type FVB, female, venetoclax 10 mg/kg PO, co-treatment PEG400 (vehicle), read-out: Venetoclax AUC(0–8h)): 6530 ng·h/mL | Cmax (female, FVB, 10 mg/kg, wild-type FVB, venetoclax 10 mg/kg PO, co-treatment PEG400 (vehicle)): 1030 ng/mL | Cmax (female, FVB.129P2 CYP3A(-/-), 10 mg/kg, Table S1: CYP3A(-/-), female, N=3, venetoclax 10 mg/kg PO, no co-treatment): 3400 ng/mL | AUC(0-t) (female, FVB.129P2 CYP3A(-/-), 10 mg/kg, Table S1: CYP3A(-/-), female, N=3, venetoclax 10 mg/kg PO, no co-treatment, read-out: Venetoclax AUC(0-last)): 13700 ng·h/mL | Cmax (female, FVB.129P2 CYP3A(−/−), 10 mg/kg, CYP3A(−/−), female, venetoclax 10 mg/kg PO 30 min after ketoconazole 50 mg/kg PO): 2700 ng/mL | AUC(0-t) (female, FVB.129P2 CYP3A(−/−), 10 mg/kg, CYP3A(−/−), female, venetoclax 10 mg/kg PO 30 min after ketoconazole 50 mg/kg PO, read-out: Venetoclax AUC(0–8h)): 17300 ng·h/mL | AUC(0-t) (female, FVB.129P2 CYP3A(−/−), 10 mg/kg, CYP3A(−/−), female, venetoclax 10 mg/kg PO, co-treatment PEG 400 (vehicle), read-out: Venetoclax AUC(0–8h)): 10600 ng·h/mL | Cmax (female, FVB.129P2 CYP3A(−/−), 10 mg/kg, CYP3A(−/−), venetoclax 10 mg/kg PO, co-treatment None (control of micafungin experiment)): 1830 ng/mL | Cmax (female, FVB.129P2 CYP3A(−/−), 10 mg/kg, CYP3A(−/−), venetoclax 10 mg/kg PO, co-treatment PEG 400 (vehicle)): 1570 ng/mL | Cmax (female, FVB.129P2 CYP3A(−/−), CYP3A(−/−), female, venetoclax 10 mg/kg PO 30 min after micafungin 100 mg/kg IV): 2280 ng/mL | AUC(0-t) (female, FVB.129P2 CYP3A(−/−), CYP3A(−/−), female, venetoclax 10 mg/kg PO 30 min after micafungin 100 mg/kg IV, read-out: Venetoclax AUC(0–8h)): 13600 ng·h/mL | AUC(0-t) (female, OATP1B2(−/−), 10 mg/kg, OATP1B2(−/−), female, n=10, venetoclax 10 mg/kg PO, no co-treatment, read-out: Venetoclax AUC(0–8h)): 6480 ng·h/mL | Cmax (female, OATP1B2(−/−), 10 mg/kg, n=10, venetoclax 10 mg/kg PO, no co-treatment): 1070 ng/mL | Venetoclax AUC Fold Increase (male OATP1B2(-/-) versus male wild-type DBA (Figure S3, Table S1)): 1.7 fold | Cmax (male, DBA, 10 mg/kg, Table S1: wild-type DBA, male, venetoclax 10 mg/kg PO, no co-treatment): 958 ng/mL | AUC(0-t) (male, DBA, 10 mg/kg, Table S1: wild-type DBA, male, venetoclax 10 mg/kg PO, no co-treatment, read-out: Venetoclax AUC(0-last)): 5270 ng·h/mL | Cmax (male, OATP1B2(-/-), 10 mg/kg, Table S1: OATP1B2(-/-), male, venetoclax 10 mg/kg PO, no co-treatment): 1610 ng/mL | AUC(0-t) (male, OATP1B2(-/-), 10 mg/kg, Table S1: OATP1B2(-/-), male, venetoclax 10 mg/kg PO, no co-treatment, read-out: Venetoclax AUC(0-last)): 9200 ng·h/mL | Venetoclax AUC Fold Increase (untreated CYP3A(-/-) versus untreated wild-type FVB, female (Figure S2, Table S1)): 1.8 fold | Venetoclax AUC Fold Increase (vehicle-treated CYP3A(−/−) versus vehicle-treated wild-type FVB, listed as venetoclax): 1.6 fold | Venetoclax AUC Fold Increase (wild-type FVB + ketoconazole 50 mg/kg versus vehicle-treated wild-type FVB, listed as venetoclax): 3 fold
Structure (SMILES): CC1(C)CCC(CN2CCN(c3ccc(C(=O)NS(=O)(=O)c4ccc(NCC5CCOCC5)c([N+](=O)[O-])c4)c(Oc4cnc5[nH]ccc5c4)c3)CC2)=C(c2ccc(Cl)cc2)C1 [Venetoclax]
Venetoclax AUC Fold Increase (CYP3A(−/−) + ketoconazole 50 mg/kg versus vehicle-treated CYP3A(−/−)): 1.6 (versus vehicle-treated wild-type CYP3A(−/−)) fold | Venetoclax AUC Fold Increase (vehicle-treated CYP3A(−/−) versus vehicle-treated wild-type FVB): 1.6 (versus vehicle-treated wild-type FVB) fold | Venetoclax AUC Fold Increase (wild-type FVB + ketoconazole 50 mg/kg versus vehicle-treated wild-type FVB): 3.0 (versus vehicle-treated wild-type FVB) fold
